This is an account of results in publication PMC11643450, “Pimozide and Adipic Acid: A New Multicomponent Crystalline Entity for Improved Pharmaceutical Behavior” (Molecules, 2024).

Usually solubility stands for the dissolved amount per volume that the medium holds. The low end stands for little dissolved substance, the high end for much dissolved substance.

Data set [1] in a line: Contact angle (wettability) of powder samples with drops of the different fluids. It counts as physicochemical. On the procedure: In total, 120 mg of each sample was placed in a cylindrical ring, and the surface was smoothed with a scraper. The Contact Angle Meter DMe-211Plus (NTG Nuova Tecnogalenica, Cernusco, Italy) was used to record the images of a drop (9 μL) of the different fluids once placed in contact with the surface of the samples at progressive times. The contact angles were measured using the software supplied with the apparatus (three replicates).

On the set-up of data set [2]: method as in doi:10.1016/j.molliq.2015.12.054. Conditions: cited from earlier work.
Data set [3] in a line: Solubility at equilibrium, shake flask method with spectrophotometric determination. The class given is physicochemical. The settings on record: thermodynamic from solid, 21 °C. The method, then:
The samples were sieved through a 230-mesh grid, 63 μm (Endecotts, London, UK).
An excess sample is placed in the flasks containing the three different fluids and left under stirring. At time intervals, a portion of the solution was taken and filtered on a 0.22 μm filter (Millipore Merck, Darmstadt, Germany). The drug concentration was determined using UV detection (Lambda 25, Perkin-Elmer, Monza, Italy). The test was repeated until equilibrium was reached.

Data set [4] in a line: In vitro dissolution test, USP apparatus 2 (paddle). It counts as physicochemical. On the procedure:
For the dissolution tests, the USP apparatus 2, paddle (Erweka DT-D6, Erweka GmbH, Dusseldorf, Germany) was used at 37.0 ± 0.5 °C and 50 rpm (three replicates). In 900 mL of 0.01 N hydrochloric acid pH = 2, which is the medium requested by the USP monograph (Pimozide Tablets, Official Monograph. In The United States Pharmacopeia (USP43-NF38); United States Pharmacopeia Convention, Inc.: Rockville, MD, USA, 2023; p. 3548), it can simulate a fasted stomach environment and, in other two fluids, simulates the following: pH 4.5 phosphate buffer (a condition that simulates the gastric environment in fed conditions) and deionized water (neutral conditions). The dissolution media were prepared according to the reagent and buffer solutions section of the USP [33]. […] The drug concentration was determined using UV detection (Lambda 25, Perkin-Elmer, Monza, Italy), and the data were analyzed using the software provided (Winlab V6 software, Perkin-Elmer, Monza, Italy).

≈ marks a conversion by molar mass, not a printed value.

In the case of `O=C(O)CCCCC(=O)O` [AAD, adipic acid], the Wettability entry in data set [1] (pH 2) is recorded as “poorly wettable”.

`O=c1[nH]c2ccccc2n1C1CCN(CCCC(c2ccc(F)cc2)c2ccc(F)cc2)CC1` [PMZ, 1-(1-(4,4-bis(p-fluorophenyl)butyl)-4-piperidyl)-2-benzimidazoline]: the BCS class entry in data set [2] is recorded as “class II”. The Contact angle in data set [1] (deionized water) is given as ~120 θ; in data set [1] (pH 2, after about 3 min) it was 4 θ; in data set [1] (pH 2, initial), 120 θ; in data set [1] (pH 4.5), “about 130 θ”. Besides, the solubility in data set [3] (aqueous buffer, pH 4.5 (phosphate buffer)) is 6.4 ± 0.2 µg/mL (≈ 13.9 µM); in data set [3] (simulated gastric fluid, pH 2.0 (0.01N hydrochloric acid)), 175 ± 1.8 µg/mL (≈ 380 µM); in data set [3] (H2O (deionized water)), 1.4 ± 0.3 µg/mL (≈ 3.03 µM). The Passage into solution result in data set [4] (deionized water (neutral conditions), compared with pH 4.5, 4 mg PMZ) was “further depressed”. The “Fraction of the dose passed into solution in the first hour” value in data set [4] (pH 4.5 phosphate buffer (fed stomach), 4 mg PMZ) is “just a very tiny fraction of the dose”.

Turning to [PMZH]2[adipate] [PMZ:AAD 0.66:0.33ev], the Contact angle result in data set [1] (deionized water) was “less than 100 θ”; in data set [1] (pH 4.5), “less than 90 θ”.
